Experimental data reported in article PMC12486440, “Design, synthesis, and in silico studies of new benzofuran–pyrazole hybrids as multi-kinase inhibitors with potential antiproliferative activity” (RSC Advances, 2025).

Columns and labels:
[1] = test system: CAKI-1; conditions: single dose 10 μM; renal carcinoma
[2] = test system: CCRF-CEM; conditions: single dose 10 μM; leukemia
[3] = test system: HL-60(TB); conditions: single dose 10 μM; leukemia
[4] = test system: NCI 60 cancer cell line panel; test: NCI 60 full panel summary; conditions: single dose 10 μM; mean over the NCI 60 panel
[5] = test system: HOP-62; conditions: single dose 10 μM; non-small lung carcinoma
[6] = test system: TK-10; conditions: single dose 10 μM; renal carcinoma
[7] = test system: K-562; conditions: single dose 10 μM; leukemia
[8] = test system: UACC-62; conditions: single dose 10 μM; melanoma
[9] = test system: RPMI-8226; conditions: single dose 10 μM; leukemia
[10] = test system: UO-31; conditions: single dose 10 μM; renal carcinoma
[11] = test system: MDA-MB-468; conditions: single dose 10 μM; breast carcinoma
[12] = test system: SNB-19; conditions: single dose 10 μM; CNS cancer
[13] = test system: SK-OV-3; conditions: single dose 10 μM; ovarian carcinoma
[14] = test system: NCI-H522; conditions: single dose 10 μM; non-small lung carcinoma
[15] = test system: HOP-92; conditions: single dose 10 μM; non-small lung carcinoma
[16] = test system: MOLT-4; conditions: single dose 10 μM; leukemia
[17] = test system: T-47D; conditions: single dose 10 μM; breast carcinoma
[18] = test system: HCT-15; conditions: single dose 10 μM; colon cancer
[19] = test system: SR; conditions: single dose 10 μM; leukemia
[20] = test system: LOX IMVI; conditions: single dose 10 μM; melanoma
[21] = test system: MALME-3M; conditions: single dose 10 μM; melanoma
[22] = test system: SF-539; conditions: single dose 10 μM; CNS cancer
[23] = test system: PC-3; conditions: single dose 10 μM; prostate carcinoma
[24] = test system: MCF7; conditions: single dose 10 μM; breast carcinoma
[25] = test system: OVCAR-5; conditions: single dose 10 μM; ovarian carcinoma
[26] = test system: SNB-75; conditions: single dose 10 μM; CNS cancer
[27] = test system: SF-295; conditions: single dose 10 μM; CNS cancer
[28] = test system: BT-549; conditions: single dose 10 μM; breast carcinoma
[29] = test system: HT29; conditions: single dose 10 μM; colon cancer
[30] = test system: 786–0; conditions: single dose 10 μM; renal carcinoma
[31] = test system: EKVX; conditions: single dose 10 μM; non-small lung carcinoma
[32] = test system: SK-MEL-5; conditions: single dose 10 μM; melanoma
[33] = test system: NCI-H226; conditions: single dose 10 μM; non-small lung carcinoma
[34] = test system: U251; conditions: single dose 10 μM; CNS cancer
[35] = test system: ACHN; conditions: single dose 10 μM; renal carcinoma
[36] = test system: SN12C; conditions: single dose 10 μM; renal carcinoma
[37] = test system: UACC-257; conditions: single dose 10 μM; melanoma
[38] = test system: HCT-116; conditions: single dose 10 μM; colon cancer
[39] = test system: A498; conditions: single dose 10 μM; renal carcinoma
[40] = test system: SK-MEL-28; conditions: single dose 10 μM; melanoma
[41] = test system: KM12; conditions: single dose 10 μM; colon cancer
[42] = test system: SK-MEL-2; conditions: single dose 10 μM; melanoma
[43] = test system: MDA-MB-435; conditions: single dose 10 μM; melanoma
[44] = test system: HCC-2998; conditions: single dose 10 μM; colon cancer
[45] = test system: SW-620; conditions: single dose 10 μM; colon cancer
[46] = test system: A549/ATCC; conditions: single dose 10 μM; non-small lung carcinoma
[47] = test system: M14; conditions: single dose 10 μM; melanoma

## COc1ccc(C2=NN(C(C)=O)C(c3cn(-c4ccccc4)nc3-c3cc4ccccc4o3)C2)cc1 (centres unmarked) [4b, 1-(5-(3-(Benzofuran-2-yl)-1-phenyl-1H-pyrazol-4-yl)-3-(4-methoxyphenyl)-4,5-dihydropyrazol-1-yl)ethanone]
[1]
  GI%: 13.20%
[2]
  GI%: 10.80%
[3]
  GI%: 0.51%
[4]
  Mean GI%: −2.13%
[5]
  GI%: 2.33%
[6]
  GI%: 7.73%
[7]
  GI%: 5.81%
[8]
  GI%: 5.56%
[9]
  GI%: 4.36%
[10]
  GI%: 17.79%
[11]
  GI%: 2.43%
[12]
  GI%: 2.45%
[13]
  GI%: 4.82%
[14]
  GI%: 1.65%
[15]
  GI%: 8.59%
[16]
  GI%: 7.68%
[17]
  GI%: 2.42%
[18]
  GI%: 0.50%
[19]
  GI%: 12.12%
[20]
  GI%: 2.30%
[21]
  GI%: 0.92%
[22]
  GI%: 2.46%
[23]
  GI%: 6.35%
[24]
  GI%: 9.85%

## CC(=O)N1N=C(c2ccccc2)CC1c1cn(-c2ccccc2)nc1-c1cc2ccccc2o1 (centres unmarked) [4a, 1-(5-(3-(Benzofuran-2-yl)-1-phenyl-1H-pyrazol-4-yl)-3-phenyl-4,5-dihydropyrazol-1-yl)ethanone]
[25]
  GI%: 3.55%
[26]
  GI%: 1.45%
[27]
  GI%: 5.69%
[1]
  GI%: 13.36%
[2]
  GI%: 15.54%
[3]
  GI%: 2.27%
[4]
  Mean GI%: 1.66%
[5]
  GI%: 1.18%
[6]
  GI%: 11.62%
[7]
  GI%: 6.90%
[8]
  GI%: 8.33%
[9]
  GI%: 6.01%
[28]
  GI%: 9.06%
[29]
  GI%: 0.65%
[10]
  GI%: 15.50%
[11]
  GI%: 3.32%
[30]
  GI%: 2.59%
[12]
  GI%: 5.00%
[13]
  GI%: 9.60%
[14]
  GI%: 2.75%
[31]
  GI%: 6.06%
[32]
  GI%: 0.15%
[33]
  GI%: 0.69%
[15]
  GI%: 16.24%
[16]
  GI%: 7.01%
[17]
  GI%: 12.41%
[18]
  GI%: 2.61%
[19]
  GI%: 17.00%
[20]
  GI%: 4.25%
[21]
  GI%: 1.02%
[34]
  GI%: 1.60%
[22]
  GI%: 8.41%
[23]
  GI%: 8.29%
[24]
  GI%: 11.19%

## 3-(5-(Benzofuran-2-yl)-1-phenyl-1H-pyrazol-3-yl)-1-(4-methoxyphenyl)prop-2-en-1-one [2b]
[25]
  GI%: 2.97%
[27]
  GI%: 7.09%
[1]
  GI%: 12.51%
[2]
  GI%: 19.37%
[3]
  GI%: 10.93%
[4]
  Mean GI%: 0.61%
[5]
  GI%: 2.25%
[6]
  GI%: 6.22%
[7]
  GI%: 8.35%
[8]
  GI%: 7.77%
[9]
  GI%: 10.27%
[10]
  GI%: 14.83%
[11]
  GI%: 65.44%
[30]
  GI%: 1.04%
[12]
  GI%: 6.26%
[13]
  GI%: 4.75%
[35]
  GI%: 0.20%
[14]
  GI%: 0.40%
[31]
  GI%: 5.88%
[33]
  GI%: 0.47%
[15]
  GI%: 18.73%
[16]
  GI%: 7.84%
[17]
  GI%: 83.54%
[19]
  GI%: 16.61%
[20]
  GI%: 4.44%
[21]
  GI%: 1.29%
[22]
  GI%: 3.20%
[23]
  GI%: 4.83%
[24]
  GI%: 0.75%

## 1-(1H-Benzo[d]imidazol-2-yl)-3-(5-(benzofuran-2-yl)-1-phenyl-1H-pyrazol-3-yl)prop-2-en-1-one [2d]
[26]
  GI%: 20.70%
[27]
  GI%: 4.39%
[1]
  GI%: 10.24%
[3]
  GI%: 8.55%
[4]
  Mean GI%: −0.94%
[5]
  GI%: 0.08%
[6]
  GI%: 3.41%
[7]
  GI%: 4.77%
[9]
  GI%: 0.67%
[28]
  GI%: 15.03%
[10]
  GI%: 7.86%
[11]
  GI%: 1.87%
[30]
  GI%: 0.74%
[12]
  GI%: 4.33%
[13]
  GI%: 4.37%
[14]
  GI%: 0.40%
[31]
  GI%: 2.15%
[16]
  GI%: 3.61%
[17]
  GI%: 7.67%
[19]
  GI%: 14.03%
[21]
  GI%: 0.07%
[36]
  GI%: 3.48%
[22]
  GI%: 1.65%
[37]
  GI%: 1.66%
[24]
  GI%: 5.90%

## c1ccc(C2=NNC(c3cn(-c4ccccc4)nc3-c3cc4ccccc4o3)C2)cc1 (centres unmarked) [3a, 3-(Benzofuran-2-yl)-4-(3-phenyl-4,5-dihydro-1H-pyrazol-5-yl)-1-phenyl-1H-pyrazole]
[25]
  GI%: 3.74%
[26]
  GI%: −10.52%
[27]
  GI%: 9.51%
[1]
  GI%: 11.52%
[2]
  GI%: 12.98%
[38]
  GI%: 99.83%
[3]
  GI%: 0.73%
[4]
  Mean GI%: 2.24%
[5]
  GI%: 2.07%
[6]
  GI%: 10.65%
[7]
  GI%: 6.49%
[8]
  GI%: 7.34%
[9]
  GI%: 2.58%
[28]
  GI%: 0.80%
[39]
  GI%: 6.22%
[29]
  GI%: 54.87%
[40]
  GI%: 2.00%
[41]
  GI%: 62.60%
[10]
  GI%: 14.55%
[12]
  GI%: 5.98%
[13]
  GI%: 8.93%
[14]
  GI%: 3.69%
[31]
  GI%: 6.43%
[32]
  GI%: 0.18%
[33]
  GI%: 8.13%
[15]
  GI%: 22.19%
[16]
  GI%: 0.33%
[42]
  GI%: −6.14%
[17]
  GI%: 10.71%
[18]
  GI%: 75.31%
[19]
  GI%: 15.96%
[43]
  GI%: −6.37%
[21]
  GI%: 3.67%
[34]
  GI%: 2.33%
[36]
  GI%: 12.27%
[22]
  GI%: 6.00%
[44]
  GI%: 66.78%
[45]
  GI%: 79.60%
[46]
  GI%: 3.63%
[23]
  GI%: 8.08%
[37]
  GI%: 6.06%
[47]
  GI%: 0.57%
[24]
  GI%: 7.06%
